Source: patent US6162925A, “Antibiotic for methicillin resistant bacteria” (Research Corporation Tech., Inc., priority 1999, dated 2000)
Converted amounts (≈) assume the structure as drawn. Each block holds one molecule with its values, some of them ahead of it.

Key:
[1] = Stability in 0.1 M phosphate buffer pH=5; type: physicochemical; settings: 0.1 M phosphate buffer at pH=5
Procedure: Compound 36 (10 mg, 0.012 mmol) was treated with anisole (0.1 mL) and TFA (1.0 mL) at 0° C. The mixture was stirred for 1 h at room temperature, concentrated and purified by PTLC (silica gel, CH2 Cl2 : MeOH, 6:1) to give 6.0 mg of a semi-solid. To a solution of this substance (6 mg, 0.0066 mmol, 1.0 eq) in MeOH (1.0 mL)/CH2 Cl2 (0.5 mL) was added PdCl2 (8.0 mg) After degassing with N2, the reaction mixture was charged with H2 (1 atm.) and the mixture was hydrogenated for 10 min. The mixture was then purged with nitrogen, and filtered to remove the catalyst. The filtrate was concentrated and dried in vacuo to give a 2HCl salt of TAN-1057 C/D (1:1, 3 mg ~100% yield) as an amorphous solid. ^1 H NMR (300 MHz, DMSO-d6 vs TMS): δ1.51 (4H, m); 2.82 (3H, s); 2.70-2.90 (2H, m); 3.09 (2H, m); 3.43 (1H, m); 3.79 (2H, m); 4.66 (1/2H, m); 4.75 (1/2H, m); 7.26 (6H, m); 7.86 (1H, br); 8.06 (1H, br); 8.70 (2H, br); 9.15 (1H, br); 10.35 (1H, br) ppm. MS (FAB): Calcd. for (C13 H25 N9 O3 +H)=356.2. Found: (M+H)=356.3; (M+2H)^++ =178.7.

[2] = Antibiotic activity by bioassay against authentic TAN-1057 A/B; type: cell-based; settings: compared with authentic TAN-1057 A/B (Takeda)
Procedure: To a solution of 29 (40 mg, 0.045 mmol, 1.0 eq) in MeOH (1.5 mL)/CH2 Cl2 (0.5 mL) was added PdCl2 (40 mg). The reaction flask was degassed and charged with H2 (1 atm). The mixture was stirred for 30 min. The mixture was then purged with nitrogen, and filtered to remove the catalyst. The filtrate was concentrated and dried in vacuo to give a 2HCl salt of TAN-1057 A/B (1/2) (1:1, 20 mg, 100% yield) as an amorphous solid. This product was identical in mobility by HPLC, mnr and antibiotic activity by bioassay to authentic TAN-1057 A/B (Takeda). ^1 HNMR (300 MHz, D2 O): δ1.77 (4H, m); 2.85 (1H, dd, J=18, 9.3 Hz); 3.00 (1H, dd, J=18, 4.0 Hz); 3.17 (3H, s); 3.27 (2H, t, J=6.0 Hz); 3.70 (1H, m); 3.99 (2H, m); 5.14 (1H, dd, J=12, 8.5 Hz) ppm; IR (KBr pellet): 3350, 3179, 2955, 1696, 1622, 1395, 1205, 1135 cm^1. MS (ES^+): Calcd. (C13 H25 N9 O3 +H)=356.2, Found (M+H)=356.4.

[3] = system: Escherichia coli ATCC 25922; experiment: MIC, broth microdilution (NCCLS), E. coli ATCC 25922; type: cell-based; settings: ATCC25922, E. coli ATCC 25922, reference strain, 35° C., 20 h, read-out: Minimal Inhibitory Concentration (MIC)
Procedure: (§1) Test compounds were assayed against Staphylococcus aureus FDA 209P by the 10 fold agar disc diffusion assay on BHI-plates at pH=7 and pH=9 in accordance with the procedure from the National Committee for Clinical Laboratory Standards 1989. Susceptibility testing. A panel of 16 bacteria was used to evaluate the antimicrobial activity of the compounds (Table 2). The MIC of each antimicrobial agent was determined using a microdilution method according to NCCLS standards^1. Serial twofold dilutions of antibiotics were prepared in Mueller-Hinton broth (Difco Laboratories, Detroit, Mich.). Bacteria were grown to early log phase at 35° C. (1 hours) in Mueller-Hinton broth and cultures were diluted to achieve a final inoculum of 5×10^5 CFU per ml. Microtiter plates were incubated at 35° C. for 20 h and then were read using a Thermomax microplate reader (Molecular Devices, Sunnyvale, Calif.) and a microtiter plate reading mirror. The MIC was defined as the lowest concentration of antibiotic which inhibited the development of visible growth at the end of the incubation period. The standard reference strains were Staphyloccocus aureus ATCC […], Enterococcus faecalis ATCC 29212, E. faecium ATCC 35667, Escherichia coli ATCC 25922, and Pseudomonas aeruginosa ATCC 27853. Imipenem and vancomycin were used as antibiotic controls and values for reference strains were in accordance with the NCCLS.

[4] = system: Enterococcus faecalis ATCC 29212; experiment: MIC, broth microdilution (NCCLS), E. faecalis ATCC 29212; type: cell-based; settings: ATCC29212, E. faecalis ATCC 29212, reference strain, 35° C., 20 h, read-out: Minimal Inhibitory Concentration (MIC)
Procedure: as §1
(§2) Enterococcus ATCC Reference strain

[5] = system: Staphylococcus aureus PC1; experiment: MIC, broth microdilution (NCCLS), S. aureus PC1; type: cell-based; settings: S. aureus PC1, Type A βlactamase hyperproducer, 35° C., 20 h, read-out: Minimal Inhibitory Concentration (MIC)
Procedure: as §1
Staphylococcus Type A βlactamase
aureus PC1 hyperproducer

[6] = system: Pseudomonas Aeruginosa ATCC 27853; experiment: MIC, broth microdilution (NCCLS), P. aeruginosa ATCC 27853; type: cell-based; settings: ATCC27853, P. aeruginosa ATCC 27853, reference strain, 35° C., 20 h, read-out: Minimal Inhibitory Concentration (MIC)
Procedure: as §1

[7] = cited from earlier work
[8] = system: Enterococcus faecium ATCC 35667; experiment: MIC, broth microdilution (NCCLS), E. faecium ATCC 35667; type: cell-based; settings: ATCC35667, E. faecium ATCC 35667, reference strain, 35° C., 20 h, read-out: Minimal Inhibitory Concentration (MIC)
Procedure: as §1, §2

[9] = system: Staphylococcus haemolyticus UA281; experiment: MIC, broth microdilution (NCCLS), S. haemolyticus UA281; type: cell-based; settings: S. haemolyticus UA281, methicillin resistant, 35° C., 20 h, read-out: Minimal Inhibitory Concentration (MIC)
Procedure: as §1
(§3) Staphylococcus Methicillin
haemolyticus UA281 resistant

[10] = system: Staphylococcus aureus COL8A; experiment: MIC, broth microdilution (NCCLS), S. aureus COL8A; type: cell-based; settings: 20 h, read-out: Minimal Inhibitory Concentration (MIC)
Procedure: as §1, §3
aureus COL8A susceptible, […]

[11] = cited from earlier work; remark: listed apart in the source
[12] = system: Staphylococcus aureus COL; experiment: MIC, broth microdilution (NCCLS), S. aureus COL; type: cell-based; settings: S. aureus COL, methicillin resistant, β-lactamase negative, 35° C., 20 h, read-out: Minimal Inhibitory Concentration (MIC)
Procedure: as §1, §3
aureus COL resistant, β-

[13] = system: Enterococcus faecium BM4147; experiment: MIC, broth microdilution (NCCLS), E. faecium BM4147; type: cell-based; settings: E. faecium BM4147, vancomycin resistant, vanA, 35° C., 20 h, read-out: Minimal Inhibitory Concentration (MIC)
Procedure: as §1
Enterococcus Vancomycin
faecium BM4147 resistant, vanA

[14] = system: Enterococcus faecium efm040; experiment: MIC, broth microdilution (NCCLS), E. faecium efm040; type: cell-based; settings: E. faecium efm040, clinical isolate U.S.A., ampicillin resistant, 35° C., 20 h, read-out: Minimal Inhibitory Concentration (MIC)
Procedure: as §1
Enterococcus Clinical isolate,
faecium efm040 U.S.A. resistant

[15] = system: Staphylococcus aureus sa201; experiment: MIC, broth microdilution (NCCLS), S. aureus sa201; type: cell-based; settings: S. aureus sa201, clinical isolate Spain, methicillin resistant, β-lactamase positive, 35° C., 20 h, read-out: Minimal Inhibitory Concentration (MIC)
Procedure: as §1
Staphylococcus Clinical isolate,
aureus sa201 Spain resistant, β-

MRSA = settings: cited from earlier work
[16] = system: Gram-positive and Gram-negative bacteria; settings: S- versus R-configuration in the heterocyclic portion; cited from earlier work
[17] = system: Staphylococcus aureus ATCC 29213; experiment: MIC, broth microdilution (NCCLS), S. aureus ATCC 29213; type: cell-based; settings: ATCC29213, S. aureus ATCC 29213, reference strain, 35° C., 20 h, read-out: Minimal Inhibitory Concentration (MIC)
Procedure: as §1
Staphylococcus ATCC Reference strain

[18] = system: Staphylococcus aureus ATCC 33593; experiment: MIC, broth microdilution (NCCLS), S. aureus ATCC 33593; type: cell-based; settings: ATCC33593, S. aureus ATCC 33593, methicillin resistant, β-lactamase positive, 35° C., 20 h, read-out: Minimal Inhibitory Concentration (MIC)
Procedure: as §1
Staphylococcus ATCC Methicillin
aureus ATCC 33593 resistant, β-

[19] = system: Staphylococcus aureus sa ATCC 13709; experiment: MIC, broth microdilution (NCCLS), S. aureus sa ATCC 13709; type: cell-based; settings: ATCC13709, S. aureus sa ATCC 13709, Smith strain, 35° C., 20 h, read-out: Minimal Inhibitory Concentration (MIC)
Procedure: as §1

Staphylococcus aureus 76 = experiment: MIC, broth microdilution (NCCLS), S. aureus 76; type: cell-based; settings: Staphylococcus aureus; S. aureus 76, methicillin resistant, β-lactamase positive; 35° C., 20 h; read-out: Minimal Inhibitory Concentration (MIC)
Procedure: as §1, §3

reversion upon standing in phosphate buffer [1]: reverted to a mixture of 1 and 2
Structure (SMILES): CN1C(=O)C[C@H](CCCNC(=N)N)NC(=O)C1CNC(=N)NC(N)=O (stereo partly drawn) [TAN-1057 C/D, [[[[5-[3-[(aminoiminomethyl)amino]propyl]hexahydro-(2S/R,5S)-1-methyl-3,7-dioxo-1H-1,4-diazepin-2-yl]methyl]amino]iminomethyl]urea]

Structure (SMILES): CN(C(=O)C[C@@H](N)CCCNC(=N)N)C1CNC(NC(N)=O)=NC1=O (stereo partly shown) [TAN-1057 A/B, 3S,5'S/R-3-amino-6-[(aminoiminomethyl)amino]-N-[2-[(aminocarbonyl)amino]-1,4,5,6-tetrahydro-4-oxo-5-pyrimidinyl)-N-methyl-hexanamide]
antibiotic activity by bioassay [2]: identical

Structure (SMILES): CN(C(=O)C[C@@H](N)CCCNC(=N)N)[C@H]1CNC(NC(N)=O)=NC1=O [TAN-1057A]
MIC [3]: 256 µg/mL (≈ 720 µM) | MIC [4]: 32 µg/mL (≈ 90 µM) | MIC [5]: 8 µg/mL (≈ 22.5 µM) | MIC [6]: 256 µg/mL (≈ 720 µM) | comparison to vancomycin in mice [7]: compare very favorably to vancomycin in mice | MIC [8]: 32 µg/mL (≈ 90 µM) | MIC [9]: 32 µg/mL (≈ 90 µM) | MIC [10]: 16 µg/mL (≈ 45 µM) | hydrolysis ([11]; acidic and basic media, racemization of α-amino acid stereogenic center): occurs in both acidic and basic media | loss of antibacterial activity in basic aqueous solutions ([11]; basic aqueous solutions, hydrolytic opening of six-membered ring): gradually lost their antibacterial activities in basic aqueous solutions | MIC [12]: 16 µg/mL (≈ 45 µM) | MIC [13]: 32 µg/mL (≈ 90 µM) | MIC [14]: 128 µg/mL (≈ 360 µM) | MIC [15]: 16 µg/mL (≈ 45 µM) | activity against MRSA (MRSA): potent activity against all of the MRSA strains evaluated | relative antibacterial activity of stereoisomers [16]: more active than TAN-1057 B and C | MIC [17]: 16 µg/mL (≈ 45 µM) | MIC [18]: 16 µg/mL (≈ 45 µM) | MIC [19]: 16 µg/mL (≈ 45 µM) | MIC (Staphylococcus aureus 76): 16 µg/mL (≈ 45 µM)
